Like-named read-outs stand apart in the source and are kept apart here.
Assays:
[1] = tested on: cell surface levels of the A2A receptor, HEK293 cells stably expressing FS2-N-A2AR; test: Cell surface levels of the A2A receptor after 24 h HSP90 inhibitor treatment (acid-strip-sensitive [3H]ZM241385 binding); assay type: cell-based, human; conditions: for EC50 relative to affinity for binding to HSP90: EC50 higher than HSP90 affinity of refs 27, 28
Protocol: (§1) After 60 min at 23 °C, the reaction was terminated by rapid filtration over glass fiber filters (Whatman-GE Healthcare). […] Total receptor numbers were also determined by measuring the radioactivity released after dissolving the samples in 1 M NaOH ([22]). […] The number of viable cells was determined manually using a microscope counting chamber.
FIGURE 5. […] Error bars, S.D. Data are from four independent experiments done in triplicate. Statistical significance was calculated by analysis of variance followed by Dunnett's multiple-comparison post hoc test (*, p < 0.05; ***, p < 0.001). B, HEK293 cells stably expressing the tagged version G2S-N-A2AR were incubated with increasing concentrations of radicicol or 17-DMAG.

[2] = tested on: A2A receptor glycoforms, HEK293 cells stably expressing G2S-N-A2AR; test: Immunoblot of A2A receptor glycoforms after HSP90 inhibitor treatment; assay type: cell-based, human; conditions: saturating concentrations, 24 h
Protocol: (§2) Cells (1–5 × 10^7 cells) were harvested, and membranes were prepared as described previously ([14]). Membranes were solubilized as described above, followed by incubation with streptavidin-conjugated beads (G2S-N-A2A) or Strep-Tactin-Sepharose beads (FSt2-N-A2A) for 2 h at 4 °C. […] Thereafter, preequilibrated protein G-Sepharose beads were added and incubated for an additional 3 h at 4 °C. The beads were washed twice with 0.5 ml of solubilization buffer. […] A2A receptor and HSP90 were detected by immunoblotting using either anti-A2AR or anti-FLAG and anti-HSP90α (Abcam, Cambridge, UK) antibodies, respectively. As a control, membranes were harvested from untransfected HEK293 cells and processed in parallel. Immunoblots were quantified as described above. Where required, nitrocellulose membranes of primary and secondary antibody labeling were stripped by incubation with KSCN buffer (3 M KSCN, 150 mM KCl, 10 mM NaH2PO4, 100 mg/liter polyvinylpyrrolidone K30, 1-ethenylpyrrolidin-2-one) for 20 min at 23 °C to afford detection of additional proteins with the pertinent antibodies (i.e. anti-HSP90β, anti-HSC70, anti-HOP, anti-P23, and anti-CHIP, all from Abcam).
FIGURE 5. […] Statistical significance was calculated by analysis of variance followed by Dunnett's multiple-comparison post hoc test (*, p < 0.05; ***, p < 0.001). […]

[3] = tested on: A2A receptor-chaperone complexes, HEK293 cells stably expressing FS2-N-A2AR; test: Co-affinity precipitation of receptor-chaperone complexes after inhibitor treatment; assay type: cell-based, human; conditions: 17-DMAG 2 μM; for amount of HSP90 co-affinity-purified with the A2A receptor / association of HSP70 with the A2A receptor / higher glycosylated, mature form of the co-purified A2A receptor (ratio mature/core): 24 h, kifunensine 2 μM, bortezomib 10 nM
Protocol: as §2
FIGURE 7. […] B, immunoblots done as in A (top) were analyzed with ImageJ. […] C, the A2A receptor was immunoprecipitated from cells that had been incubated in the presence and absence of 17-DMAG (2 μM) as in A. The levels of HSC70 (C, top), HOP (C, second from top), P23 (C, third from top), and CHIP (C, bottom) were determined by immunoblotting and quantified with ImageJ.

[4] = tested on: endogenously expressed A2A receptor in PC12 cells; test: [3H]ZM241385 binding to membranes of inhibitor-pretreated PC12 cells; assay type: cell-based; conditions: for levels of functional (binding-competent) receptors: 24 h pretreatment, 2 μM, 10 nM [3H]ZM241385, PC12 membranes; for increase in steady state levels of active A2A receptors: PC12 cells, kifunensine 2 μM, bortezomib 10 nM
Protocol: as §1
(§3) FIGURE 9. Effect of HSP90 and/or proteasome inhibitors on the levels of endogenously expressed A2A receptor in PC12 cells. […] B, prior to membrane preparations of PC12 cells expressing the A2A receptor, cells were incubated in the absence and presence of 17-DMAG (2 μM), kifunensine (2 μM), and bortezomib (10 nM). […] After two washes, surface-bound radioligand was released by an acid strip and recovered in the supernatant. Assays were performed in quadruplicates. […] After membrane extraction and immunoprecipitation, aliquots (corresponding to 3 × 10^5 cells) of the immunoprecipitate were blotted for the A2A receptor (top), HSP90α, HSP70–1A, HOP, P23, and CHIP, as indicated. M, mature; C, core glycosylated.

[5] = tested on: A2A receptor-chaperone complexes in PC12 cells; test: Immunoprecipitation of endogenous A2A receptor from inhibitor-pretreated PC12 cells and immunoblotting; assay type: cell-based; conditions: for fully glycosylated, slowly migrating band of the A2A receptor: kifunensine 2 μM, bortezomib 10 nM
Protocol: as §2, §3

[6] = set-up: method as in PMID 20177028; conditions: administered to people; cited from earlier work

SMILES	EC50 ([1]; 24 h incubation, acid-strip-sensitive [3H]ZM241385 binding, read-out: EC50 for increase in cell surface levels of the A2A receptor)	EC50 relative to affinity for binding to HSP90 [1]	core glycosylated band of the A2A receptor (immunoblot) [2]	associated CHIP [3]	associated P23 [3]	co-precipitated HOP [3]	co-precipitated HSC70 [3]	amount of HSP90 co-affinity-purified with the A2A receptor [3]	association of HSP70 with the A2A receptor [3]	higher glycosylated, mature form of the co-purified A2A receptor (ratio mature/core) [3]	levels of functional (binding-competent) receptors [4]	HSP90α, HSP70-1A and HSC70 recovered in the immunoprecipitate ([5]; 17-DMAG 2 μM, 24 h)	fully glycosylated, slowly migrating band of the A2A receptor ([5]; 24 h, 17-DMAG 2 μM)	HOP recovered with the A2A receptor ([5]; pretreatment with DMAG)	P23 and CHIP recovered with the A2A receptor ([5]; pretreatment with DMAG)	half-life [6]	increase in steady state levels of active A2A receptors [4]	EC50 ([1]; Homo sapiens, HEK293, read-out: EC50 for increase in cell surface levels of the A2A receptor)
CO[C@H]1/C=C\C=C(/C)C(=O)NC2=CC(=O)C(NCCN(C)C)=C(C[C@@H](C)C[C@H](OC)[C@H](O)[C@@H](C)/C=C(\C)[C@@H]1OC(N)=O)C2=O [17-DMAG, 17-dimethylaminoethylamino-17-demethoxygeldanamycin]	~1000 nM	about 3 fold	increased accumulation	decline	decrease in associated P23 (HSP90 co-chaperone), but this did not reach statistical significance	substantial increase	substantial increase	increased	augmented	significant increase	increased	abundant amounts	increased the abundance	more	less	24 h		
CC(C)C[C@H](NC(=O)[C@H](Cc1ccccc1)NC(=O)c1cnccn1)B(O)O [bortezomib]								did not cause the accumulation	did not cause the accumulation	significant increase			increased the abundance				about 1.5 fold	
O=C1N[C@@H]2[C@@H](O)[C@@H](O)[C@H](O)[C@@H](CO)N2C1=O [kifunensine]								accumulation	accumulation	no significant increase	increased		increased the abundance				about 1.5 fold	
C[C@@H]1C[C@H]2O[C@@H]2/C=C\C=C\C(=O)Cc2c(Cl)c(O)cc(O)c2C(=O)O1 [radicicol]		about 3 fold	increased accumulation															~400 nM

Reference: article PMC3789979, “Recruitment of a Cytoplasmic Chaperone Relay by the A2A Adenosine Receptor” (The Journal of Biological Chemistry, 2013)
